Test results as given in patent US8222244B2, “Staurosporine derivatives as inhibitors of FLT3 receptor tyrosine kinase activity” (Novartis AG, priority 2001, dated 2012).

Target: T1, human Flt-3 (Homo sapiens, UniProt P36888)
T1 construct: expresses the amino acid region amino acids 563-993 of the intra-cytoplasmic kinase domains of human Flt-3; made in house; host or cells: Sf9 insect cells (baculovirus, pFbacG01 donor vector)
T1 sequence (P36888 563-993): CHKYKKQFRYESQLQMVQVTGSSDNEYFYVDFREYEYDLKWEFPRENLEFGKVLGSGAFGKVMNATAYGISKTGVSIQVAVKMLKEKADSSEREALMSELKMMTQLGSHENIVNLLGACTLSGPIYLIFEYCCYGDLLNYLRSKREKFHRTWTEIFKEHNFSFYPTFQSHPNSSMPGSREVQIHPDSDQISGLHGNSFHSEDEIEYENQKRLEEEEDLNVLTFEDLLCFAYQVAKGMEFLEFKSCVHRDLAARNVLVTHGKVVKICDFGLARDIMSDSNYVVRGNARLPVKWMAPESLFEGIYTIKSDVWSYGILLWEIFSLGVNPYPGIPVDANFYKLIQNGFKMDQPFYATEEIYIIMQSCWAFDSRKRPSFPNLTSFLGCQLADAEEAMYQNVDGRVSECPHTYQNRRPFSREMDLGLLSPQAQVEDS
Assay: Tyrosine protein kinase assay with purified GST-Flt-3 (33P incorporation)
Assay type: biochemical
Settings: at a 1.0 micromolar concentration
Procedure, shortened: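 GST-fused Flt-3 cytoplasmic domain, expressed in baculovirus-infected Sf9 cells and purified, phosphorylates substrate with [γ-33P]ATP. Reaction spotted onto PVDF membranes, washed with H3PO4 and ethanol, and incorporated 33P counted by scintillation.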

Row | Flt3 Inhibition (percent inhibition of Flt3 kinase activity) | Substance
1 | 96% | (9a,10b,11b,13a)-11-[(N-Acetyl-6-amino-6-deoxy-b-muramoyl)methylamino]-2,3,10,11,12,13-hexahydro-10-methoxy-9-methyl-9,13-epoxy-1H,9H-diindolo[1,2,3-gh:3′,2′,1′-lm]pyrrolo[3,4-j][1,7]benzodiazonin-1-one [149713-77-9]
2 | 91% | (9a,10b,11b,13a)-11-[(N-Acetyl-a-muramoyl)methylamino]-2,3,10,11,12,13-hexahydro-10-methoxy-9-methyl-9,13-epoxy-1H,9H-diindolo[1,2,3-gh:3′,2′,1′-lm]pyrrolo[3,4-j][1,7]benzodiazonin-1-one [149622-53-7]
3 | 85% | (9a,10b,11b,13a)-11-[(N-Acetyl-a-normuramoyl)methylamino]-2,3,10,11,12,13-hexahydro-10-methoxy-9-methyl-9,13-epoxy-1H,9H-diindolo[1,2,3-gh:3′,2′,1′-lm]pyrrolo[3,4-j][1,7]benzodiazonin-1-one [149622-55-9]
4 | 76% | (9a,10b,11b,13a)-11-[[N-Acetyl-1-O-(phenylmethyl)-a-isomuramoyl]methylamino]-2,3,10,11,12,13-hexahydro-10-methoxy-9-methyl-9,13-epoxy-1H,9H-diindolo[1,2,3-gh:3′,2′,1′-lm]pyrrolo[3,4-j][1,7]benzodiazonin-1-one [149713-64-4]
5 | 72% | (9a,10b,11b,13a)-11-[[N-Acetyl-1-O-(phenylmethyl)-a-muramoyl]methylamino]-2,3,10,11,12,13-hexahydro-10-methoxy-9-methyl-9,13-epoxy-1H,9H-diindolo[1,2,3-gh:3′,2′,1′-lm]pyrrolo[3,4-j][1,7]benzodiazonin-1-one [149622-39-9]
6 | 67% | (9a,10b,11b,13a)-11-[[N-Acetyl-1-deoxy-6-O-[(4-methylphenyl)sulfonyl]muramoyl]methylamino]-2,3,10,11,12,13-hexahydro-10-methoxy-9-methyl-, 9,13-epoxy-1H,9H-diindolo[1,2,3-gh:3′,2′,1′-lm]pyrrolo[3,4-j][1,7]benzodiazonin-1-one [149622-70-8]
7 | 77% | (9a,10b,11b,13a)-11-[[N-Acetyl-4,6-O-(1-methylethylidene)-1-O-(phenylmethyl)-a-isomuramoyl]methylamino]-2,3,10,11,12,13-hexahydro-9-methyl-10-methoxy-9,13-epoxy-1H,9H-diindolo[1,2,3-gh:3′,2′,1′-lm]pyrrolo[3,4-j][1,7]benzodiazonin-1-one [149622-59-3]
8 | 70% | (9a,10b,11b,13a)-11-[[N-Acetyl-4,6-di-O-acetyl-1-O-(phenylmethyl)-a-muramoyl]methylamino]-2,3,10,11,12,13-hexahydro-10-methoxy-9-methyl-9,13-epoxy-1H,9H-diindolo[1,2,3-gh:3′,2′,1′-lm]pyrrolo[3,4-j][1,7]benzodiazonin-1-one [149622-61-7]
9 | 22% | (9a,10b,11b,13a)-11-[[N-Acetyl-4-O-acetyl-6-O-(1-oxooctadecyl)-1-O-(phenylmethyl)-a-muramoyl]methylamino]-2,3,10,11,12,13-hexahydro-10-methoxy-9-methyl-9,13-epoxy-1H,9H-diindolo[1,2,3-gh:3′,2′,1′-lm]pyrrolo[3,4-j][1,7]benzodiazonin-1-one [149622-62-8]
10 | 27% | (9a,10b,11b,13a)-11-[[N-Acetyl-4-O-acetyl-6-O-(1-oxooctadecyl)-a-muramoyl]methylamino]-2,3,10,11,12,13-hexahydro-10-methoxy-9-methyl-9,13-epoxy-1H,9H-diindolo[1,2,3-gh:3′,2′,1′-lm]pyrrolo[3,4-j][1,7]benzodiazonin-1-one [149622-64-0]
11 | 51% | (9a,10b,11b,13a)-11-[[N-Acetyl-6-O-(methylsulfonyl)-1-O-(phenylmethyl)-a-muramoyl]methylamino]-2,3,10,11,12,13-hexahydro-10-methoxy-9-methyl-, 9,13-epoxy-1H,9H-diindolo[1,2,3-gh:3′,2′,1′-lm]pyrrolo[3,4-j][1,7]benzodiazonin-1-one [149622-41-3]
12 | 94% | (9a,10b,11b,13a)-11-[[N-Acetyl-6-O-(methylsulfonyl)-a-muramoyl]methylamino]-2,3,10,11,12,13-hexahydro-10-methoxy-9-methyl-9,13-epoxy-1H,9H-diindolo[1,2,3-gh:3′,2′,1′-lm]pyrrolo[3,4-j][1,7]benzodiazonin-1-one [149622-54-8]
13 | 99% | (9a,10b,11b,13a)-11-[[N-Acetyl-6-amino-6-deoxy-1-O-(phenylmethyl)-a-muramoyl]methylamino]-2,3,10,11,12,13-hexahydro-10-methoxy-9-methyl-9,13-epoxy-1H,9H-diindolo[1,2,3-gh:3′,2′,1′-lm]pyrrolo[3,4-j][1,7]benzodiazonin-1-one, monomethanesulfonate [150622-14-3]
14 | 61% | (9a,10b,11b,13a)-11-[[N-Acetyl-6-azido-6-deoxy-1-O-(phenylmethyl)-a-muramoyl]methylamino]-2,3,10,11,12,13-hexahydro-10-methoxy-9-methyl-,9,13-epoxy-1H,9H-diindolo[1,2,3-gh:3′,2′,1′-lm]pyrrolo[3,4-j][1,7]benzodiazonin-1-one [149622-42-4]
15 | 81% | (9a,10b,11b,13a)-N-(2,3,10,11,12,13-Hexahydro-10-methoxy-9-methyl-1-oxo-9,13-epoxy-1H,9H-diindolo[1,2,3-gh:3′,2′,1′-lm]pyrrolo[3,4-j][1,7]benzodiazonin-11-yl)-N-methyl-4-nitro-benzamide [120685-46-3]
16 | 89% | N-[(9S,10R,11R,13R)-2,3,10,11,12,13-Hexahydro-10-methoxy-9-methyl-1-oxo-9,13-epoxy-1H,9H-diindolo[1,2,3-gh:3′,2′,1′-lm]pyrrolo[3,4-j][1,7]benzodiazonin-11-yl]-2-hydroxy-N-methyl-Benzamide [178955-60-7]
17 | 67% | [9S-(9a,10b,11b,13a)]-(2,3,10,11,12,13-Hexahydro-10-methoxy-9-methyl-1,3-dioxo-9,13-epoxy-1H,9H-diindolo[1,2,3-gh:3′,2′,1′-lm]pyrrolo[3,4-j][1,7]benzodiazonin-11-yl)methyl-carbamic acid, 1,1-dimethylethyl ester [154589-93-2]
18 | 49% | [9S-(9a,10b,11b,13a)]-(2,3,10,11,12,13-Hexahydro-10-methoxy-9-methyl-1-oxo-9,13-epoxy-1H,9H-diindolo[1,2,3-gh:3′,2′,1′-lm]pyrrolo[3,4-j][1,7]benzodiazonin-11-yl)methyl-carbamic acid, 2-methylpropyl ester [154590-03-1]
19 | 94% | [9S-(9a,10b,11b,13a)]-N-(2,3,10,11,12,13-Hexahydro-10-methoxy-9-methyl-1-oxo-9,13-epoxy-1H,9H-diindolo[1,2,3-gh:3′,2′,1′-lm]pyrrolo[3,4-j][1,7]benzodiazonin-11-yl)-N-methyl-2-[(tetrahydro-2H-pyran-4-yl)oxy]-acetamide [160251-52-5]
20 | 87% | [9S-(9a,10b,11b,13a)]-[3-[(2,3,10,11,12,13-Hexahydro-10-methoxy-9-methyl-1-oxo-9,13-epoxy-1H,9H-diindolo[1,2,3-gh:3′,2′,1′-lm]pyrrolo[3,4-j][1,7]benzodiazonin-11-yl)methylamino]-3-oxopropyl]-carbamic acid, 1,1-dimethylethyl ester [124078-44-0]
21 | 89% | [9S-(9a,10b,13a)]-2,3,9,10,12,13-Hexahydro-10-hydroxy-9-methyl-9,13-epoxy-1H,11H-diindolo[1,2,3-gh:3′,2′,1′-lm]pyrrolo[3,4-j][1,7]benzodiazonine-1,11-dione, 11-oxime [187457-73-4]
22 | 76% | [9a,10b,11b(S*),13a]-2-(Acetylamino)-2-deoxy-3-O-[1-[[(2,3,10,11,12,13-hexahydro-10-methoxy-9-methyl-1-oxo-9,13-epoxy-1H,9H-diindolo[1,2,3-gh:3′,2′,1′-lm]pyrrolo[3,4-j][1,7]benzodiazonin-11-yl)methylamino]carbonyl]propyl]-a-D-Glucopyranose [149622-60-6]
23 | 43% | [9a,10b,11b(S*),13a]-phenylmethyl 2-(acetylamino)-2-deoxy-3-O-[1-[[(2,3,10,11,12,13-hexahydro-10-methoxy-9-methyl-1-oxo-9,13-epoxy-1H,9H-diindolo[1,2,3-gh:3′,2′,1′-lm]pyrrolo[3,4-j][1,7]benzodiazonin-11-yl)methylamino]carbonyl]propyl]-a-D-Glucopyranoside [149622-45-7]
